Experimental data published in patent US10106501B2, “Nuclear receptor modulators” (AbbVie Inc., priority 2015, dated 2018).

Biological target: T1, chimeric human RORγ-Gal4 receptor (Homo sapiens, UniProt P51449)
T1 sequence (P51449 269-508 limits assumed): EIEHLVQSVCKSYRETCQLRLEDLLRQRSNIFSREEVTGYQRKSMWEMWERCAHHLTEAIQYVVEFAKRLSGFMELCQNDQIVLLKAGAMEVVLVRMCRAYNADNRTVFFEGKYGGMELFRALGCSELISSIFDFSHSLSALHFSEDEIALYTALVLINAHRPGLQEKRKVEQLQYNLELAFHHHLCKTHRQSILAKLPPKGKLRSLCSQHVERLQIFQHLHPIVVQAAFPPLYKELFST
Assay: transient transactivation assay (RORγ-Gal4 luciferase reporter)
Type: cell-based
Conditions: Cos-7 cells transfected with RORγ-Gal4 and 5Gal4 pGL3 TK Luc reporter; overnight incubation; T0901317 at 10^-5 M as reference; read-out: IC50

SMILES | IC50
Cc1ncc(C(=O)N2CCOCC2)c(C)c1Cc1cc2c(C)cc(C(F)(F)F)cc2n1C [Example BB, (5-((1,4-dimethyl-6-(trifluoromethyl)-1H-indol-2-yl)methyl)-4,6-dimethylpyridin-3-yl)(morpholino)methanone] | 500 to 1000 nM
Cn1c(Cc2c(Cl)ccc(C(=O)N3CCOCC3)c2Cl)cc2c(Cl)cc(C#N)cc21 [DQ, 4-chloro-2-(2,6-dichloro-3-(morpholine-4-carbonyl)benzyl)-1-methyl-1H-indole-6-carbonitrile] | < 100 nM
Cc1cc(N2CCOCC2)cc2c1cc(Cc1c(Cl)ccc(C(=O)N3CCOCC3)c1Cl)n2C [Example AY, (2,4-dichloro-3-((1,4-dimethyl-6-morpholino-1H-indol-2-yl)methyl)phenyl)(morpholino)methanone] | < 100 nM
Cc1cc(C(F)(F)F)nc2c1cc(Cc1c(Cl)ncc(C(=O)N3CCC(O)CC3)c1Cl)n2C [DO, (4,6-dichloro-5-((1,4-dimethyl-6-(trifluoromethyl)-1H-pyrrolo[2,3-b]pyridin-2-yl)methyl)pyridin-3-yl)(4-hydroxypiperidin-1-yl)methanone] | < 100 nM
Cc1cc(C(F)(F)F)cc2c1c(Cc1c(Cl)ncc(C(=O)N3CCC(CC(=O)O)CC3)c1Cl)cn2C [DV, 2-[1-[4,6-dichloro-5-[[1,4-dimethyl-6-(trifluoromethyl)-1H-indol-3-yl]methyl]pyridine-3-carbonyl]-4-piperidyl]acetic acid] | < 100 nM
COC1CCC(NC(=O)c2ccc(Cl)c(Cc3nc4c(C)cc(C(F)(F)F)cc4n3C)c2Cl)CC1 (stereo not drawn) [BJ-22] | 100 to 500 nM
Cc1cn(Cc2c(Cl)ccc(C(=O)N3CCC(O)CC3)c2Cl)c2c(C)cc(C#N)cc12 [DK, 1-(2,6-dichloro-3-(4-hydroxypiperidine-1-carbonyl)benzyl)-3,7-dimethyl-1H-indole-5-carbonitrile] | 100 to 500 nM
Cn1c(Cc2c(Cl)ccc(C(=O)N3CCC(C(=O)O)CC3)c2Cl)cc2ccc(OC(F)(F)F)cc21 [FI-1] | < 100 nM

Second part, the molecule after the results:

IC50 | SMILES
100 to 500 nM | Cn1c(Cc2c(Cl)ccc(C(=O)N3CCC(CO)CC3)c2Cl)cc2ccc(C(F)(F)F)cc21 [Example L-2]
500 to 1000 nM | Cc1cc(C(F)(F)F)cn2c(C)c(Cc3c(Cl)ccc(C(=O)N4CCC(N(C)C)CC4)c3Cl)nc12 [CT-5]
< 100 nM | Cc1cc(C(F)(F)F)cc2c1cc(Cc1c(Cl)ccc(C(=O)N3CCC(CC(=O)O)C(C)C3)c1Cl)n2C (stereo not drawn) [Example B-21]
< 100 nM | Cc1cc(C(F)(F)F)cc2c1nc(Cc1c(Cl)ccc(C(=O)N3CCC(C4COC4)CC3)c1Cl)n2C [BJ-17]
1000 to 10000 nM | Cc1cc(C(F)(F)F)cc2c1nc(Cc1c(Cl)ccc(C(=O)N3CCN(C)C(C)C3)c1Cl)n2C (stereo not drawn) [BJ-31]
< 100 nM | Cc1cc(C(F)(F)F)cc2ccn(Cc3c(Cl)ccc(C(=O)N4CCC(CC(=O)O)CC4)c3Cl)c12 [J, 2-(1-(2,4-dichloro-3-((7-methyl-5-(trifluoromethyl)-1H-indol-1-yl)methyl)benzoyl)piperidin-4-yl)acetic acid]
< 100 nM | Cc1cc(C(F)(F)F)cc2c(C)n(C(=O)c3c(Cl)ccc(C(=O)N4CCC(CC(=O)O)CC4)c3Cl)nc12 [EB, 2-(1-(2,4-dichloro-3-(3,7-dimethyl-5-(trifluoromethyl)-2H-indazole-2-carbonyl)benzoyl)piperidin-4-yl)acetic acid]
< 100 nM | Cc1nn(Cc2c(Cl)ccc(C(=O)N3CCC(C4COC4)CC3)c2Cl)c2c(C)cc(C(F)(F)F)cc12 [DD-1, (2,4-dichloro-3-((3,7-dimethyl-5-(trifluoromethyl)-1H-indazol-1-yl)methyl)phenyl)(4-(oxetan-3-yl)piperidin-1-yl)methanone]
< 100 nM | Cc1cc(C(F)(F)F)nn2c(C)c(Cc3c(Cl)ccc(C(=O)N4CCOCC4)c3Cl)nc12 [CZ, (2,4-dichloro-3-((3,8-dimethyl-6-(trifluoromethyl)imidazo[1,2-b]pyridazin-2-yl)methyl)phenyl)(morpholino)methanone]
< 100 nM | Cc1cc(C#N)nc2c1cc(Cc1c(Cl)ccc(C(=O)N3CCC(C4COC4)CC3)c1Cl)n2C [CL-2]
